Source: PubChem BioAssay (NCI)
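Exposure lasted 48 hours, with cells grown in 96-well plates and compounds tested at five concentrations. GI50: concentration for 50% inhibition of growth. TGI is the concentration that stops growth completely.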

Legend:
Assay in all cases: DTP human tumour cell line panel, 48 h
SK-MEL-5 melanoma = test system: SK-MEL-5 melanoma
SF-539 CNS = test system: SF-539 CNS
TK-10 renal = test system: TK-10 renal
NCI/ADR-RES ovarian = test system: NCI/ADR-RES ovarian
SK-MEL-28 melanoma = test system: SK-MEL-28 melanoma
SR leukemia = test system: SR leukemia
CAKI-1 renal = test system: CAKI-1 renal
MOLT-4 leukemia = test system: MOLT-4 leukemia
MALME-3M melanoma = test system: MALME-3M melanoma
SF-268 CNS = test system: SF-268 CNS

SMILES	TGI (SK-MEL-5 melanoma)	TGI (SF-539 CNS)	TGI (TK-10 renal)	TGI (NCI/ADR-RES ovarian)	TGI (SK-MEL-28 melanoma)	TGI (SR leukemia)	TGI (CAKI-1 renal)	TGI (MOLT-4 leukemia)	TGI (MALME-3M melanoma)	TGI (SF-268 CNS)	GI50 (SK-MEL-28 melanoma)
CCN(C(=S)N[C@@H](Cc1ccccc1)C(=O)N[C@@H](CC(C)C)C(=O)OC)c1ccccc1	> 100 µM	> 100 µM	> 100 µM	> 100 µM	> 100 µM	61.6 µM	> 100 µM	81.2 µM	> 100 µM	–	–
COc1cc(C2SCC(=O)N2c2ccc(NC(=O)c3ccc(N4C(=O)CSC4c4cc(OC)c(OC)c(OC)c4)cc3)cc2)cc(OC)c1OC (stereo not drawn)	> 100 µM	> 100 µM	> 100 µM	70.6 µM	> 100 µM	–	> 100 µM	> 100 µM	> 100 µM	> 100 µM	–
O=C(c1cc2ccccc2cc1O)N1CCCCC1	54.6 µM	> 100 µM	> 100 µM	94.3 µM	> 100 µM	55.9 µM	> 100 µM	42.7 µM	–	> 100 µM	–
BrC/C=C/C[P+](c1ccccc1)(c1ccccc1)c1ccccc1	39.8 µM	22.4 µM	42 µM	–	> 100 µM	–	–	> 100 µM	> 100 µM	> 100 µM	–
N#CCCN(CCC#N)c1ccc(/C=C2\N=C(c3ccccc3)N(c3ccc(Cl)cc3)C2=O)cc1	> 100 µM	> 100 µM	> 100 µM	> 100 µM	> 100 µM	–	–	> 100 µM	> 100 µM	> 100 µM	–
Cc1c(S(=O)(=O)/N=C(\N)Nc2ccc(Cl)cc2)sc2ccc(Cl)cc12	> 100 µM	> 100 µM	39.5 µM	47.1 µM	48.5 µM	> 100 µM	–	78.1 µM	39.8 µM	32 µM	–
O=c1c2ccccc2nc2[nH][nH]c(=S)n12	> 100 µM	> 100 µM	> 100 µM	> 100 µM	> 100 µM	> 100 µM	> 100 µM	> 100 µM	–	> 100 µM	–
Cc1nn(C(=O)Cc2ccccc2)c2c1C(c1ccc(O)cc1)SC(N)=N2 (stereo not drawn)	> 100 µM	> 100 µM	> 100 µM	–	> 100 µM	> 100 µM	> 100 µM	> 100 µM	> 100 µM	> 100 µM	–
O=C1C=CC(=O)N1Nc1ccc([N+](=O)[O-])cc1[N+](=O)[O-]	> 100 µM	> 100 µM	> 100 µM	–	> 59.2 µM	> 63.1 µM	> 71 µM	> 75.2 µM	31.1 µM	> 100 µM	–
CC(=O)O[C@]12CCCCCC1C1(O)C(O)CCC[C@H]12 (stereo partly drawn)	> 100 µM	–	> 100 µM	–	> 100 µM	> 100 µM	–	> 100 µM	> 100 µM	> 100 µM	–
O=c1oc(-c2ccc(O)c(O)c2)cc2cccc(O)c12	23.4 µM	> 85.6 µM	> 49.1 µM	51.3 µM	87.3 µM	–	38.7 µM	52 µM	> 86.5 µM	> 85.2 µM	24.6 µM
CC(C)(C)NC(=O)/C(=C\Sc1ccccc1)c1ccc2c(c1)OCO2	32.8 µM	> 100 µM	> 100 µM	97.5 µM	> 100 µM	83.8 µM	> 100 µM	> 100 µM	–	52.3 µM	–
N#CC(C#N)=CNC(=S)c1ccncc1	> 100 µM	68.4 µM	–	> 100 µM	> 100 µM	> 100 µM	> 100 µM	> 100 µM	> 100 µM	> 100 µM	–
CSc1cc(Cl)c(C)cc1S(=O)(=O)NC(=O)NNc1ccc(Cl)cc1	> 100 µM	> 100 µM	–	> 100 µM	> 100 µM	> 100 µM	> 100 µM	> 100 µM	> 100 µM	> 100 µM	–
COc1ccc(C#CC(=O)O)c(OC)c1	> 100 µM	> 100 µM	> 100 µM	> 100 µM	> 100 µM	> 100 µM	> 100 µM	> 100 µM	> 100 µM	–	–
CSc1c(C#N)c(N)n2c1C(=O)N(c1ccccc1)C2=S	> 100 µM	> 100 µM	> 100 µM	> 100 µM	> 100 µM	–	> 100 µM	> 100 µM	> 100 µM	> 100 µM	–
CN(C)C(=S)S	> 100 µM	> 100 µM	> 100 µM	> 100 µM	> 100 µM	–	> 100 µM	> 100 µM	> 90.2 µM	> 100 µM	–
O=C1C[C@H](Sc2ccccc2)C2(OCCO2)[C@@H](Sc2ccccc2)C1	4.23 µM	4.05 µM	6.96 µM	4.92 µM	10.4 µM	1.22 µM	12.8 µM	–	7.81 µM	8.83 µM	–
COc1ccc2nc3cc(Cl)ccc3c(NCCCNCCCNc3c4ccc(Cl)cc4nc4ccc(OC)cc34)c2c1	–	0.192 µM	0.588 µM	> 22.8 µM	–	2.73 µM	–	> 100 µM	1.22 µM	–	–
N#C/C(=C\c1cc(Br)c(O)c(Br)c1)c1cccnc1	–	71.5 µM	87.2 µM	59.1 µM	> 100 µM	76.5 µM	> 100 µM	> 100 µM	41.6 µM	> 100 µM	–
O=C(CNc1ccccc1Cl)Nn1c(-c2ccccc2)nc2ccccc2c1=O	21.8 µM	43.6 µM	> 100 µM	–	55.9 µM	97.6 µM	–	57.7 µM	–	> 100 µM	–
c1ccc2c(c1)NC(C1OC3CCCN3C1C1Nc3ccccc3S1)S2 (stereo not drawn)	> 100 µM	> 100 µM	> 100 µM	–	> 100 µM	> 100 µM	> 100 µM	> 100 µM	> 100 µM	> 100 µM	–
O=C(NCCCN(CCCCN(CCCNC(=O)C(F)(F)F)Cc1ccccc1)Cc1ccccc1)C(F)(F)F	14.9 µM	26.3 µM	53.5 µM	30.1 µM	25.1 µM	–	26.4 µM	39.9 µM	28.4 µM	25 µM	–
